# Reference: ChEMBL document CHEMBL1201862, “PubChem BioAssay data set” (2004)
# Active and inactive are the calls of the source.
# Key:
# [1] = biological target: T1, Heat shock factor protein 1 (Mus musculus, UniProt P38532); assay: HSF1 potentiators in luciferase reporter cells, confirmation, cell-based, NIH3T3, luminescence, dose retest (AID 435004); assay type: functional;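 note: stress induced by proteasome inhibitor MG132 added 30 min after compound; luciferase reporter driven by HSF1 response element in NIH3T3 cells; actives raise luminescence as potentiators of the MG132 stress response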
# T1 sequence (P38532 whole entry): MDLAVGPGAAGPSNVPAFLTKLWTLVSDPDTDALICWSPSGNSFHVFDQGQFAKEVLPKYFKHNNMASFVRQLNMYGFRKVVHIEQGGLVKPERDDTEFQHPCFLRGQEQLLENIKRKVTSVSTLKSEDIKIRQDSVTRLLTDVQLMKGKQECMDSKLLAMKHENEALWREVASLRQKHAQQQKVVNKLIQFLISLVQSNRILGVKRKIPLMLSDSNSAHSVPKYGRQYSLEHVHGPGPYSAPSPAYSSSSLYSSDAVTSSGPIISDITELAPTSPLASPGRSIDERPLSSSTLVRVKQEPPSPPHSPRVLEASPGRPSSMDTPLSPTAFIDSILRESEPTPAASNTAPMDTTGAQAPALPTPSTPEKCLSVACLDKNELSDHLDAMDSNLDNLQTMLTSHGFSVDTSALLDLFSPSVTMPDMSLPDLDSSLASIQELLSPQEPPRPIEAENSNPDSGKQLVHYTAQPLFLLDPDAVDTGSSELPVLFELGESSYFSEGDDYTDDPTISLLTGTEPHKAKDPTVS
# [2] = biological target: T2, High affinity choline transporter 1 (Homo sapiens, UniProt Q9GZV3); assay: CHT inhibitors, dose response, cell-based, 5-point CRC, membrane potential dye (AID 504840); assay type: functional
# T2 sequence (Q9GZV3 whole entry): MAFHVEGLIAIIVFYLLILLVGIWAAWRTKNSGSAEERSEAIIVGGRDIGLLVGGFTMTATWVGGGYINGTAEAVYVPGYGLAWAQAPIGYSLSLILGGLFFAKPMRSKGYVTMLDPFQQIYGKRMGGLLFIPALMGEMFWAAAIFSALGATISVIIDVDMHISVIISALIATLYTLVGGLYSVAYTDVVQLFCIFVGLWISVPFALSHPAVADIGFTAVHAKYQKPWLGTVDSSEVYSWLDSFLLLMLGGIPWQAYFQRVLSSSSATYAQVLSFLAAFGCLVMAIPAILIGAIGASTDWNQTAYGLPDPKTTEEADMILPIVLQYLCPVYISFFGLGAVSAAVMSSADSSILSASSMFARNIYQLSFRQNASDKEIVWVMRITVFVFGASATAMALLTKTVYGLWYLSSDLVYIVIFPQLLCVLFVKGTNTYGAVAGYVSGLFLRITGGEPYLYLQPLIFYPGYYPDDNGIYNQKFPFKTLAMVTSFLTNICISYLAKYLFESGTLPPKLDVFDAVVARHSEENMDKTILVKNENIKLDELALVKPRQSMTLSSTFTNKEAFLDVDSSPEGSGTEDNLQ
# [3] = LGR2 antagonists, dose response, cell-based, HEK293, CRE-luciferase reporter, cherry pick, set 2 (AID 743343); assay type: functional;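 note: transfected cells were stimulated with diluted bursicon conditioned medium after compound addition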
# [4] = MC4R antagonists, dose response, counter-screen for LGR2 antagonist project, cell-based, plate reader, cherry pick (AID 743444); assay type: functional;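 note: transfected HEK 293 cells stimulated with alpha-MSH peptide; potency of inhibitors of the alpha-MSH evoked signal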
# [5] = biological target: T3, Microphthalmia-associated transcription factor (Homo sapiens, UniProt O75030); assay: TRPM1 promoter luciferase signal decrease, dose response, MITF inhibitor project, cell-based, SK-MEL-5, cherry-picked, set 3 (AID 493073); assay type: functional
# T3 sequence (O75030 whole entry): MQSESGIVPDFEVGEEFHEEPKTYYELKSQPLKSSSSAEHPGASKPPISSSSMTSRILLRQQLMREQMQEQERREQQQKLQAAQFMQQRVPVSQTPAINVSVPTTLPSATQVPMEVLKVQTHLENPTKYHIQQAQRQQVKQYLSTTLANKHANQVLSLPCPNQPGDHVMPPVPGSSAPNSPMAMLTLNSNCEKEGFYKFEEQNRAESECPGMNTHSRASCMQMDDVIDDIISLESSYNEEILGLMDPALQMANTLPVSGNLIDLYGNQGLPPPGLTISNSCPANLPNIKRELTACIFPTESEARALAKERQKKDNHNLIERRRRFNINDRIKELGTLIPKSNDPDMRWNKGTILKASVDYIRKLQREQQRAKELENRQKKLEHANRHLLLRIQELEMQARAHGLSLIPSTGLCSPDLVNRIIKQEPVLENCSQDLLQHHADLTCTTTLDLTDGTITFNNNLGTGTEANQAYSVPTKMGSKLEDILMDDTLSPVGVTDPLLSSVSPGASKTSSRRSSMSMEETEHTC
# [6] = biological target: T4, Zinc finger protein mex-5 (Caenorhabditis elegans, UniProt Q9XUB2); assay: MEX-5/TCR-2 RNA interaction inhibitors, dose response, biochemical, C. elegans, fluorescence polarization (AID 1960)
# T4 sequence (Q9XUB2 whole entry): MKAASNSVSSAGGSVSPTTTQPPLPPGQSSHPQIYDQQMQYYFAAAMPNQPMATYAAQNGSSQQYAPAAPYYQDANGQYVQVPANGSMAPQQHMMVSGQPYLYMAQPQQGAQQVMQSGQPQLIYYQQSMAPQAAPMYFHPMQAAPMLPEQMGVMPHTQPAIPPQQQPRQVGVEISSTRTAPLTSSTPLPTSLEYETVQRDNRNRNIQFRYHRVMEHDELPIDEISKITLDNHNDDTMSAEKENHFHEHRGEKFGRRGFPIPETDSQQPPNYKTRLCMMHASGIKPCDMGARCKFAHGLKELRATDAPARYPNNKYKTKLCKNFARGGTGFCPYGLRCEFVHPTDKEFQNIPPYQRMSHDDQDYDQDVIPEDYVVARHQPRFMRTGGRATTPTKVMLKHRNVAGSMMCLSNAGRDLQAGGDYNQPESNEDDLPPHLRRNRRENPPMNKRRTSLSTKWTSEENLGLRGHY
# [7] = biological target: T5, RNA-binding protein pos-1 (Caenorhabditis elegans, UniProt G5EF15); assay: inhibitors of POS-1/mex-3 RNA binding, dose response, biochemical, fluorescence polarization (AID 1964);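 note: purified POS-1 fused to maltose binding protein made in E. coli; potency of compounds blocking POS-1 binding to fluorescent RNA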
# T5 sequence (G5EF15 whole entry): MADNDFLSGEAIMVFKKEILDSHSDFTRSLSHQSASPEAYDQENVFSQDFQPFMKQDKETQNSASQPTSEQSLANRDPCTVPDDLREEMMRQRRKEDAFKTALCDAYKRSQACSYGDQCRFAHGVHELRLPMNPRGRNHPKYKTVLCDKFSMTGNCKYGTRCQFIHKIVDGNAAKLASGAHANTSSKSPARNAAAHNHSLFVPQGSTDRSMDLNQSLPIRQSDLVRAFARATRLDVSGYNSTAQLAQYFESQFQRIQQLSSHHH
# Cytochrome P450 2D6 = Cytochrome P450 2D6 (Homo sapiens, UniProt P10635);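 note: CYP2D6 member of a cytochrome P450 panel assay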
# Chain of Cytochrome P450 2D6 (P10635 whole entry): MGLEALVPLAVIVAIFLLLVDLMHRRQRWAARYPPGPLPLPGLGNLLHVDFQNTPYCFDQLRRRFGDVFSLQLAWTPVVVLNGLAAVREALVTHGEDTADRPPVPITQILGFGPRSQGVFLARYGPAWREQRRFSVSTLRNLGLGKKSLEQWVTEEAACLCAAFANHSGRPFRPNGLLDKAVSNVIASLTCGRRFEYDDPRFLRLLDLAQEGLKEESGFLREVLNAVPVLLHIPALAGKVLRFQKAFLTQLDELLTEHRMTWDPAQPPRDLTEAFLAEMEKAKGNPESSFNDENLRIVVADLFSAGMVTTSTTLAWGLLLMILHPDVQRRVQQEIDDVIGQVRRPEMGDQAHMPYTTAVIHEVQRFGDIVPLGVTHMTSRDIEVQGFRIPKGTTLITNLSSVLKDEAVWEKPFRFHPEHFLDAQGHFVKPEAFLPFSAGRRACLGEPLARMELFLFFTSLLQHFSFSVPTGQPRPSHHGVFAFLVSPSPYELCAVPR
# Protein RecA = biological target: T6, Protein RecA (Mycobacterium tuberculosis, UniProt P9WHJ3); assay: Fluorescence Cell-Free Homogeneous Dose Retest to Identify Inhibitors of RecA-Intein Splicing Activity. [Related pubchem assays (depositor defined):AID2097, AID2223, AID489010, AID492950]; assay type: functional
# T6 sequence (P9WHJ3 whole entry): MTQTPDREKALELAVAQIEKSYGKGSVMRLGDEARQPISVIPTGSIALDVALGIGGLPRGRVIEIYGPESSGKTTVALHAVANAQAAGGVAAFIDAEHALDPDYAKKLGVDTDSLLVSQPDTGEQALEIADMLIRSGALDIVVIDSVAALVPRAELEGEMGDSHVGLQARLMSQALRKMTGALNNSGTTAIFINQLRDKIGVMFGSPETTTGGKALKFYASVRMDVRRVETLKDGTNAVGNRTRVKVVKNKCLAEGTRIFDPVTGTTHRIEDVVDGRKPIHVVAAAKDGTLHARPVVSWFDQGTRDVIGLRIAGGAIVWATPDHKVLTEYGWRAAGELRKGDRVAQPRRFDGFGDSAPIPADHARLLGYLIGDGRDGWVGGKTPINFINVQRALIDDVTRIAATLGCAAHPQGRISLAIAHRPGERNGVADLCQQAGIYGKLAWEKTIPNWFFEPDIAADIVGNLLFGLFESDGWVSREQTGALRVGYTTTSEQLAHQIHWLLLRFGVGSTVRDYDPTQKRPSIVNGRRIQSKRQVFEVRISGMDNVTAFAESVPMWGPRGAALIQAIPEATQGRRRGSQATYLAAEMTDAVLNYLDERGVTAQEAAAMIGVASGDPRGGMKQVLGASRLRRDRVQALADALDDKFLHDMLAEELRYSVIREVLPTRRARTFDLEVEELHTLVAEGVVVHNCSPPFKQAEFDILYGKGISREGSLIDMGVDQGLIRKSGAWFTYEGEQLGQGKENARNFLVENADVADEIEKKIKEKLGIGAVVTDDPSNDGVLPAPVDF
# [8] = Luminescence Cell-Based Dose Retest to Confirm Inhibitors of Cancer Stem Cells. [Related pubchem assays (depositor defined):AID2717, AID2721]; assay type: functional; details: Homo sapiens
# [9] = biological target: T7, Replicative DNA helicase DnaB (Mycobacterium tuberculosis, UniProt P9WMR3); assay: DnaB intein splicing inhibitors, dose response, biochemical, cell-free fluorescence (AID 449749); assay type: functional
# T7 sequence (P9WMR3 whole entry): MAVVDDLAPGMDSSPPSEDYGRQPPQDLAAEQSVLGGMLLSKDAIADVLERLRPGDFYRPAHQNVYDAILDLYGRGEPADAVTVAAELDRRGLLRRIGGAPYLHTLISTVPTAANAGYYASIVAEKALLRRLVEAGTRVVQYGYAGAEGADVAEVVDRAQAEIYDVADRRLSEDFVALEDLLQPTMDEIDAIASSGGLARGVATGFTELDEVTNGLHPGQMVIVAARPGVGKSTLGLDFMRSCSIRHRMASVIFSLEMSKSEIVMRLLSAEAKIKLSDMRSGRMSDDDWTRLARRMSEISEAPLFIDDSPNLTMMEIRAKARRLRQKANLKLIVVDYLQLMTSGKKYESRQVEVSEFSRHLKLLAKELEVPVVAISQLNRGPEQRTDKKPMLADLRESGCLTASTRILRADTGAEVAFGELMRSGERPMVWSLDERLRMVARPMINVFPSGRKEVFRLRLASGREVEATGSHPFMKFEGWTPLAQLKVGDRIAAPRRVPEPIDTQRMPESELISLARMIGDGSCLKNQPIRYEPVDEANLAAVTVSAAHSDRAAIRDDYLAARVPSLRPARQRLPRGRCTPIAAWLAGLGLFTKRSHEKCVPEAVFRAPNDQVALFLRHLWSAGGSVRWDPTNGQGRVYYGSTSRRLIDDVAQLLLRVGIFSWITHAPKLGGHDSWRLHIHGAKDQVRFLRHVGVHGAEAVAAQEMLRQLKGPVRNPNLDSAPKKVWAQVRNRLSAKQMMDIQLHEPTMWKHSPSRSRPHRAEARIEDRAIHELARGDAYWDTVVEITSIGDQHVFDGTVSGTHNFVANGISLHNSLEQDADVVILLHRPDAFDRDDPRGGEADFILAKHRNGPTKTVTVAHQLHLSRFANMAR
# cells [10] = assay type: functional, cell-based
# cells [11] = assay type: functional, cell-based; remark: listed apart in the source
# [12] = biological target: Voltage-dependent T-type calcium channel subunit alpha-1H (Homo sapiens, UniProt O95180); assay type: functional;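 note: channel activity triggered by adding a high calcium stimulation buffer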
# Chain of Voltage-dependent T-type calcium channel subunit alpha-1H (O95180 whole entry): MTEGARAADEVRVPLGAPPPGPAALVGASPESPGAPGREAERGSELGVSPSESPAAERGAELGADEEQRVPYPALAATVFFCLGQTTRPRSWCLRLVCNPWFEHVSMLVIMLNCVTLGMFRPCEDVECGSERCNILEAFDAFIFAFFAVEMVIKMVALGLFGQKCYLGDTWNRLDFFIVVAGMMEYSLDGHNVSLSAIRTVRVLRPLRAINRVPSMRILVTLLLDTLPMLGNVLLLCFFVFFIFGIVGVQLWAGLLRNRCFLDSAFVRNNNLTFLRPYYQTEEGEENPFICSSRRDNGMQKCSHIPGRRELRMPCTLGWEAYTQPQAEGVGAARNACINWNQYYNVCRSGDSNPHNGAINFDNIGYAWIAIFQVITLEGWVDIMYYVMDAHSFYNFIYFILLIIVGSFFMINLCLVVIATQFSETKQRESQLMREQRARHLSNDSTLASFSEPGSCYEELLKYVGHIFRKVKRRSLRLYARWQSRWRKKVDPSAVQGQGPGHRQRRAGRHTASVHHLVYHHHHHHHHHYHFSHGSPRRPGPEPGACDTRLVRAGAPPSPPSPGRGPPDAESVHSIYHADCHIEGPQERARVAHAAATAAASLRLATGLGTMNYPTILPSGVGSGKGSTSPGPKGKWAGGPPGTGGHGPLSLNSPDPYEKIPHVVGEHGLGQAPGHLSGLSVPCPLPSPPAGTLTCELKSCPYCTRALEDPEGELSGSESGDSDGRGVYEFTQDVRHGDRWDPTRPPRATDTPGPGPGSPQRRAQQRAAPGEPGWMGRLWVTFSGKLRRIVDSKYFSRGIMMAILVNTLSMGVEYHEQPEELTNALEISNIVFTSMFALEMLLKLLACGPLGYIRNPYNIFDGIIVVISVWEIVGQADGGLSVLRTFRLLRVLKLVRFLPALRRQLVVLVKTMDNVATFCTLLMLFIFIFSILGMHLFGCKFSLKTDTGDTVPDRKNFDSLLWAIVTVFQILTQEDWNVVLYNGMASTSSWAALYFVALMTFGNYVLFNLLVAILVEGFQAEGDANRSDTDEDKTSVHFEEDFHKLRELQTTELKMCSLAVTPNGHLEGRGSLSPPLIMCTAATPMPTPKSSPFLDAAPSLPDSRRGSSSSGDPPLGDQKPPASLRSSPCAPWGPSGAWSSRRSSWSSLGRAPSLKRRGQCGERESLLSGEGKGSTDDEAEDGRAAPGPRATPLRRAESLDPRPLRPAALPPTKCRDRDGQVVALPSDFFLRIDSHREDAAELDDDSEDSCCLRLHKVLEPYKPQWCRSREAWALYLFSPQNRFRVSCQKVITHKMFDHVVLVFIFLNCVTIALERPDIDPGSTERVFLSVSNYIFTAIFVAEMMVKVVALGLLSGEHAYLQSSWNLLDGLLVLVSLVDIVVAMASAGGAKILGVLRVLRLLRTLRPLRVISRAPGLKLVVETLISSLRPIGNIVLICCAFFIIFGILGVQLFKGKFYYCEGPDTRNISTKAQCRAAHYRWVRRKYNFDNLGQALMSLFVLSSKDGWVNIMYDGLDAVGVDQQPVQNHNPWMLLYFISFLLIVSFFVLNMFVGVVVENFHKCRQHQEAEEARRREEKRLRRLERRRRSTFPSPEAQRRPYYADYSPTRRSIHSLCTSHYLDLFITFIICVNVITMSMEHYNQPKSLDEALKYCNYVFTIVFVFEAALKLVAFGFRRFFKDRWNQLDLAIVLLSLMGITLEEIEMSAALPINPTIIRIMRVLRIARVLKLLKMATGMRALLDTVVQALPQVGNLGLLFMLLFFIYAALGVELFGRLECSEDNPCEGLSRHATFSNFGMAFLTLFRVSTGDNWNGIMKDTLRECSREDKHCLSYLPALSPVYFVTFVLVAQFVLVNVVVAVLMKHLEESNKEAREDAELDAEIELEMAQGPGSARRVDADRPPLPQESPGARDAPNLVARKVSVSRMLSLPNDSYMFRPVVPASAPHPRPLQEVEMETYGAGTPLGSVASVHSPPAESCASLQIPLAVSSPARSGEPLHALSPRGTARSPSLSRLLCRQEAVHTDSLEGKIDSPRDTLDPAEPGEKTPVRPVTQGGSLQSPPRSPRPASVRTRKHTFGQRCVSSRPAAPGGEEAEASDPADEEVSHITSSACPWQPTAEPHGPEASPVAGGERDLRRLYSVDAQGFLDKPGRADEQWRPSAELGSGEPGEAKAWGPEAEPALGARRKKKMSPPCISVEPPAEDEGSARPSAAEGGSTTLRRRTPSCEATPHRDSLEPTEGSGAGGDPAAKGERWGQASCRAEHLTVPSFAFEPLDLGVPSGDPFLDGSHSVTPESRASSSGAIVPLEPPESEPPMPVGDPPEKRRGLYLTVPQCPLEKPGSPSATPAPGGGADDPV
smiles,measurement,setting,value
COc1ccccc1N1CCN(C(=O)C(CC(C)C)NC(=O)C2CCCCC2)CC1 (configuration not stated),EC50,[1],> 260 µM (inactive)
COc1ccc(OC)c(NC(=O)CNC(c2ccccc2)c2ccccc2)c1,EC50,[1],> 260 µM (inactive)
Cc1ccc(CNC(=O)Cn2ccc3ccccc3c2=O)o1,EC50,[1],> 260 µM (inactive)
C/C(=N\NC1=NCCN1)c1ccccc1,IC50,[2],12.9 µM (active)
COc1ccc(S(=O)(=O)Nc2cc3c4c(oc3c3ccccc23)CCCC4=O)cc1,EC50,[1],> 260 µM (inactive)
CCCCCNC(=O)C1CCC(Cn2c(=S)[nH]c3ccccc3c2=O)CC1 (configuration not stated),EC50,[1],> 260 µM (inactive)
O=C(CCCc1ccccc1)Nc1cccc(C(=O)O)c1,AC50,[3],2.04 µM (active)
same,AC50,[4],1.91 µM (active)
same,AC50,[5],4.42 µM (active)
CN1C(=O)c2ccccc2NC(=O)[C@]12O[C@@H]2c1cccc(O)c1,EC50,[6],35.1 µM (active)
same,EC50,[7],4.13 µM (active)
Cc1ccc(NCC(=O)N/N=C\c2ccc([N+](=O)[O-])o2)cc1,AC50,Cytochrome P450 2D6,15.8 µM (inconclusive)
same,AC50,[5],19.1 µM (active)
O=C(O)CCC(=O)N1N=C(c2cccs2)CC1c1cn(-c2ccccc2)nc1-c1ccccc1 (configuration not stated),EC50,[6],> 300 µM (not active)
same,EC50,[7],46.5 µM (active)
CS(=O)(=O)c1ccc(Cl)c(C(=O)NCC2CCCCC2)c1,EC50,[1],> 260 µM (inactive)
CC1CCN(S(=O)(=O)c2ccc3c(c2)N(CC(=O)NCCCN2C(C)CCCC2C)C(=O)CO3)CC1 (configuration not stated),IC50,[2],13.5 µM (active)
CCc1nnc(NS(=O)(=O)c2ccc(NC(=O)c3cccc(Br)c3)cc2)s1,IC50,[2],13.2 µM (active)
N=C(N)NS(=O)(=O)c1ccc(NC(=S)NC(=O)/C=C/c2cccs2)cc1,EC50,[6],> 300 µM (not active)
same,EC50,[7],> 300 µM (not active)
COC(=O)[C@@H]1C[C@]2(OC(=O)c3ccccc3)C=CC(=O)C[C@@H]2N1C(=O)OCc1ccccc1,EC50,Protein RecA,10.5 µM (active)
same,EC50,[1],18.5 µM (active)
same,AC50,[8],6.36 µM (active)
same,AC50,[9],8.72 µM (active)
same,AC50,[5],14 µM (active)
O=S(=O)(c1ccc(Oc2ccccc2)cc1)N1CCOCC1,EC50,[1],> 260 µM (inactive)
CCN(CC)S(=O)(=O)c1cccc(C(=O)N/N=C(\C)c2ccc(O)cc2O)c1,EC50,cells [10],> 350 µM (not active)
same,EC50,cells [11],11.7 µM (active)
same,AC50,[5],3.74 µM (active)
CCc1ccccc1NC(=O)c1ccc(CN2CCC(Cc3ccccc3)CC2)cc1,IC50,[2],13.8 µM (active)
same,EC50,[12],0.111 µM (active)
CN(Cc1ccccc1)c1nc(N)nc(Cl)c1C=O,IC50,[2],15.1 µM (active)
